This is an account of results in the supplement of paper PMC10307832.

Holding throughout (assay): relative viability (nuclei count vs DMSO), 5 days (fraction); higher = more cells survive
Compound in experiment [1]: COc1cc2ncn(-c3cc(OCc4ccccc4C(F)(F)F)c(C(N)=O)s3)c2cc1OC + COc1cccc2cc(-c3nc([C@H]4CC[C@H](C(=O)O)CC4)n4ncnc(N)c34)[nH]c12 [OSI-027] (partner 0.5 µM)
The method, boiled down: (§1)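 Relative viability divides the nuclei count in treated wells by that in vehicle wells. Lung cancer cell lines were seeded in 1536-well plates, dosed by pin tool the next day, and fixed and stained after 5 days in one step with final 0.05% Triton X-100, 1% formaldehyde and 1 ug/ml Hoechst. Dosing was a single drug or a fixed anchor-drug dose plus five library-drug doses (not always all listed) in √10 steps, and values are medians of duplicate plates imaged at 4×.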

Compound in experiment [2]: COc1cc2ncn(-c3cc(OCc4ccccc4C(F)(F)F)c(C(N)=O)s3)c2cc1OC + CC(=O)Nc1cccc(-n2c(=O)n(C3CC3)c(=O)c3c(Nc4ccc(I)cc4F)n(C)c(=O)c(C)c32)c1 [Trametinib] (partner 0.02 µM)
In short, it runs like this: as §1

Compound in experiment [3]: COc1cc2ncn(-c3cc(OCc4ccccc4C(F)(F)F)c(C(N)=O)s3)c2cc1OC + C[C@]1(O)C[C@@H](c2nc(-c3ccc4ccc(-c5ccccc5)nc4c3)c3c(N)nccn32)C1 [Linsitinib] (partner 1 µM)
The method, boiled down: as §1

Compound in experiment [4]: COc1cc2ncn(-c3cc(OCc4ccccc4C(F)(F)F)c(C(N)=O)s3)c2cc1OC + CS(=O)(=O)CCNCc1ccc(-c2ccc3ncnc(Nc4ccc(OCc5cccc(F)c5)c(Cl)c4)c3c2)o1 [Lapatinib] (partner 2 µM)
The method, boiled down:
as §1

Consider LCLC-103H, for which the relative viability in experiment [1] (first compound 0.05 µM) came out at 0.495; in experiment [1] (first compound 0.1581 µM), 0.538; in experiment [1] (first compound 0.5 µM) it was 0.405; in experiment [1] (first compound 1.581 µM) it was 0.249; in experiment [1] (first compound 5 µM) it was 0.12; in experiment [2] (first compound 0.05 µM) it was 0.675. For the same cell line, the relative viability in experiment [2] (first compound 0.1581 µM) is 0.643; in experiment [2] (first compound 0.5 µM), 0.565; in experiment [2] (first compound 1.581 µM), 0.452; in experiment [2] (first compound 5 µM), 0.268; in experiment [3] (first compound 0.05 µM), 1.21; in experiment [3] (first compound 0.1581 µM), 1.09. Moreover, the relative viability turned out to be 0.841 in experiment [3] (first compound 0.5 µM), 0.53 in experiment [3] (first compound 1.581 µM) and 0.344 in experiment [3] (first compound 5 µM).

On to NCI-H441, for which the relative viability came to 0.553 in experiment [1] (first compound 0.05 µM); 0.495 in experiment [1] (first compound 0.1581 µM); 0.2 in experiment [1] (first compound 0.5 µM); 0.245 in experiment [1] (first compound 1.581 µM); 0.237 in experiment [1] (first compound 5 µM); 0.537 in experiment [2] (first compound 0.05 µM). Besides, the relative viability in experiment [2] (first compound 0.1581 µM) turned out to be 0.423; in experiment [2] (first compound 0.5 µM), 0.156; in experiment [2] (first compound 1.581 µM), 0.133; in experiment [2] (first compound 5 µM), 0.113; in experiment [3] (first compound 0.05 µM), 0.395; in experiment [3] (first compound 0.1581 µM), 0.315. Besides, the relative viability in experiment [3] (first compound 0.5 µM) turned out to be 0.205; in experiment [3] (first compound 1.581 µM), 0.152; in experiment [3] (first compound 5 µM) it was 0.149.

For NCI-H522, the relative viability in experiment [1] (first compound 0.05 µM) was 0.692; in experiment [1] (first compound 0.1581 µM), 0.757; in experiment [1] (first compound 0.5 µM) it was 0.621; in experiment [1] (first compound 1.581 µM), 0.444; in experiment [1] (first compound 5 µM), 0.415; in experiment [2] (first compound 0.05 µM) it was 0.654. Also, the relative viability in experiment [2] (first compound 0.1581 µM) was determined as 0.748; in experiment [2] (first compound 0.5 µM), 0.657; in experiment [2] (first compound 1.581 µM), 0.673; in experiment [2] (first compound 5 µM), 0.335.

On to NCI-H1299, for which the relative viability in experiment [3] (first compound 0.05 µM) stood at 0.984; in experiment [3] (first compound 0.1581 µM) it was 1.12; in experiment [3] (first compound 0.5 µM), 0.636; in experiment [3] (first compound 1.581 µM), 0.245; in experiment [3] (first compound 5 µM), 0.253; in experiment [4] (first compound 0.05 µM), 0.984. The relative viability in experiment [4] (first compound 0.1581 µM) came out at 0.92; in experiment [4] (first compound 0.5 µM), 0.599; in experiment [4] (first compound 1.581 µM) it was 0.314; in experiment [4] (first compound 5 µM), 0.312.

For NCI-H1563, the relative viability in experiment [1] (first compound 0.05 µM) was 0.853; in experiment [1] (first compound 0.1581 µM) it was 0.687; in experiment [1] (first compound 0.5 µM), 0.798; in experiment [1] (first compound 1.581 µM) it was 0.57; in experiment [1] (first compound 5 µM), 0.488; in experiment [3] (first compound 0.05 µM), 1.22. Moreover, the relative viability in experiment [3] (first compound 0.1581 µM) was found to be 1.18; in experiment [3] (first compound 0.5 µM), 1.22; in experiment [3] (first compound 1.581 µM), 1.21; in experiment [3] (first compound 5 µM), 0.799; in experiment [4] (first compound 0.05 µM), 1.04; in experiment [4] (first compound 0.1581 µM), 1.02. Further, the relative viability in experiment [4] (first compound 0.5 µM) was found to be 0.877; in experiment [4] (first compound 1.581 µM), 0.748; in experiment [4] (first compound 5 µM), 0.588.

On to NCI-H1648, for which the relative viability turned out to be 0.255 in experiment [1] (first compound 0.05 µM); 0.219 in experiment [1] (first compound 0.1581 µM); 0.244 in experiment [1] (first compound 0.5 µM); 0.238 in experiment [1] (first compound 1.581 µM); 0.198 in experiment [1] (first compound 5 µM); 0.488 in experiment [2] (first compound 0.05 µM). For the same cell line, the relative viability in experiment [2] (first compound 0.1581 µM) is 0.419; in experiment [2] (first compound 0.5 µM) it was 0.295; in experiment [2] (first compound 1.581 µM), 0.293; in experiment [2] (first compound 5 µM), 0.251.

Regarding NCI-H1650, the relative viability came out at 0.503 in experiment [1] (first compound 0.05 µM); 0.654 in experiment [1] (first compound 0.1581 µM); 0.208 in experiment [1] (first compound 0.5 µM); 0.134 in experiment [1] (first compound 1.581 µM); 0.149 in experiment [1] (first compound 5 µM); 0.631 in experiment [2] (first compound 0.05 µM). Also, the relative viability in experiment [2] (first compound 0.1581 µM) was 0.515; in experiment [2] (first compound 0.5 µM) it was 0.35; in experiment [2] (first compound 1.581 µM), 0.143; in experiment [2] (first compound 5 µM), 0.139; in experiment [4] (first compound 0.05 µM) it was 0.789; in experiment [4] (first compound 0.1581 µM), 0.853. Moreover, the relative viability in experiment [4] (first compound 0.5 µM) came out at 0.293; in experiment [4] (first compound 1.581 µM) it was 0.196; in experiment [4] (first compound 5 µM), 0.186.

With NCI-H1703, the relative viability in experiment [3] (first compound 0.05 µM) was found to be 0.721; in experiment [3] (first compound 0.1581 µM), 0.992; in experiment [3] (first compound 0.5 µM), 0.205; in experiment [3] (first compound 1.581 µM), 0.143; in experiment [3] (first compound 5 µM), 0.078; in experiment [4] (first compound 0.05 µM) it was 1.28. The relative viability in experiment [4] (first compound 0.1581 µM) came out at 1.44; in experiment [4] (first compound 0.5 µM) it was 0.564; in experiment [4] (first compound 1.581 µM) it was 0.17; in experiment [4] (first compound 5 µM), 0.235.

For NCI-H2170, the relative viability stood at 0.703 in experiment [1] (first compound 0.05 µM); 0.667 in experiment [1] (first compound 0.1581 µM); 0.365 in experiment [1] (first compound 0.5 µM); 0.173 in experiment [1] (first compound 1.581 µM); 0.183 in experiment [1] (first compound 5 µM); 0.96 in experiment [2] (first compound 0.05 µM). The relative viability turned out to be 0.885 in experiment [2] (first compound 0.1581 µM); 0.246 in experiment [2] (first compound 0.5 µM); 0.159 in experiment [2] (first compound 1.581 µM); 0.153 in experiment [2] (first compound 5 µM); 0.262 in experiment [4] (first compound 0.05 µM); 0.241 in experiment [4] (first compound 0.1581 µM). Further, the relative viability in experiment [4] (first compound 0.5 µM) is 0.244; in experiment [4] (first compound 1.581 µM), 0.221; in experiment [4] (first compound 5 µM), 0.2.

Consider NCI-H2342, for which the relative viability in experiment [1] (first compound 0.05 µM) was 0.614; in experiment [1] (first compound 0.1581 µM), 0.579; in experiment [1] (first compound 0.5 µM), 0.56; in experiment [1] (first compound 1.581 µM), 0.416; in experiment [1] (first compound 5 µM), 0.375; in experiment [2] (first compound 0.05 µM) it was 0.794. In addition, the relative viability in experiment [2] (first compound 0.1581 µM) was found to be 0.757; in experiment [2] (first compound 0.5 µM), 0.696; in experiment [2] (first compound 1.581 µM) it was 0.607; in experiment [2] (first compound 5 µM), 0.598.
